Read-outs that look alike come from different tables or passages of the source.

From US9896487B2, “Amyloidosis-inhibiting polypeptides and their use” (UNIVERSITY OF WASHINGTON THROUGH ITS CENTER FOR …, priority 2013, dated 2018) come the findings set out here.

The test system of the assay is Aβ, IAPP and TTR amyloidosis / toxic oligomer. Put plainly: Inhibitory activity summary: inhibition of aggregation and/or binding of toxic oligomer. Type of assay: biochemical. As to the method:
In addition, FIG. 5 contains ‘control’ designs aimed at reverse engineering the α1 design, which is presented in more detail in Example 3. […] These designs are both linear and cyclic peptides designed to be hairpins.
The “control” designs were tested as general inhibitors against the Amyloid β 1-42 peptide (Aβ) (panel A), the islet amylin polypeptide (IAPP, or amylin, which is implicated in type 2 diabetes) (panel B), and transthyretin (TTR) (panel C) amyloidosis (FIG. 6). […] As described in Example 1, a Thioflavin T (ThT) fluorescence assay was used to monitor Aβ and IAPP aggregation. A Congo Red dye-binding assay was used to monitor TTR fibrillization. For inhibition against Aβ, peptides were co-incubated at 4-fold excess of Aβ at RT in neutral pH buffer containing ThT. […] For inhibition against IAPP, peptides were co-incubated at 8-fold excess of IAPP at 37° C. in neutral pH buffer containing 20 μM ThT. For inhibition against TTR, peptides were co-incubated at 10-fold excess of monomeric TTR.
The data in FIG. 6 were normalized to ThT fluorescence of the negative (uninhibited) control (black squares). Inhibition traces are ordered vertically according to sequence identity to α1 (see Table 1). Sigmoidal fits to data are included. Controls are identical throughout a single panel, and traces for inhibition samples are colored while the uninhibited aggregation profiles are in black.

For the substance “Ac-RGEMNLSWMNEYSGWTMNLKMGR-NH2 (not fully specified (residues 4, 6, 8, 16, 18, 20); printed as Ac-RGEMNLSWMNEYSGWTMNLKMGR-NH2) [peptide #20, all L-amino acid version of ldas90]”, the “Inhibits Aggregation and/or binds oligomer?” value is on record as “no”. Further, the “Inhibits Aggregation and/or binds oligomer?” value (listed as llas90) is “inactive”. In the case of RGEmNlSwMNEYSGWtMnLkMGR [peptide #7], the “Inhibits Aggregation and/or binds oligomer?” value is listed as “demonstrate activity”.
